# Measurements from patent publication US20220168400A1, “USE OF A MANGANESE SUPEROXIDE DISMUTASE WITH HIGH STABILITY IN THE PREVENTION OR TREATMENT OF CEREBRAL STROKE” (CARRY HEALTH BIOPHARMACEUTICALS (HANGZHOU) CO., LTD., priority 2019, published 2022).
# Marks after values point to notes of the source that are not given here.
# Key:
# Format in all cases: in vivo
# [1] = tested on: cerebral ischemia model in Albino strain zebrafish; assay: Ponatinib-induced cerebral ischemia model in zebrafish; settings: aspirin 50 μg/mL; for Incidence of cerebral ischemia: model control 100%
# Description: Melanin allele mutated Albino strain zebrafish at 2 days post fertilization (2 dpf) was administered with an aqueous ponatinib solution (1 μg/mL) for 18 hours to establish a cerebral ischemia model in zebrafish. 180 melanin allele mutated Albino strain zebrafishes at 2 days post fertilization (2 dpf) were randomly selected. 30 zebrafishes were treated in each well (experiment group), and aqueous MS-SOD solutions with concentrations of 222, 667 and 2000 μg/mL were administrated respectively, the concentration of positive control drug aspirin was 50 μg/m L, and the normal control group and the model control group were set at the same time. The volume of each well was 3 mL. After MS-SOD treatment for a period of time, except for the normal control group, all the other experiment groups were simultaneously administrated with aqueous ponatinib solution to induce the cerebral ischemia model in zebrafish. After 18 hours of co-treatment with MS-SOD and ponatinib, 20 fish were randomly selected from each well and stained with o-Dianisidine. After staining, photos were taken and data were collected to count the number of zebrafish with cerebral ischemia and calculate the incidence of cerebral ischemia in zebrafish of each experiment group.
# [2] = tested on: cerebral hemorrhage model in wild-type AB strain zebrafish; assay: Simvastatin-induced cerebral hemorrhage model in zebrafish (incidence); settings: icariin 30 μM; for Incidence of cerebral hemorrhage: model control 83%
# Description: 1 dpf wild-type AB strain zebrafish was administered with an aqueous simvastatin solution (0.5 μM) for 18 hours to establish a cerebral hemorrhage model in zebrafish. 180 wild-type AB strain zebrafishes at 1 day post fertilization (1 dpf) were randomly selected and put in a six-well plate, 30 per well (experiment group). Simvastatin was used to induce a cerebral hemorrhage model in zebrafish. Aqueous MS-SOD solutions with concentrations of 222, 667 and 2000 μg/mL were administrated respectively, the concentration of positive control drug icariin was 30 μM, and the normal control group and the model control group were set at the same time. The volume of each well was 3 mL. After 18 hours of co-treatment with MS-SOD and simvastatin, 30 zebrafishes from each group were selected and observed under a microscope, photos were taken and saved. The number of zebrafish with cerebral hemorrhage was counted, and the incidence of cerebral hemorrhage in zebrafish of each experiment group was calculated.
# [3] = tested on: cerebral hemorrhage model in wild-type AB strain zebrafish; assay: Blood flow volume in simvastatin-induced cerebral hemorrhage model in zebrafish; settings: icariin 30 μM; for Blood flow volume (mean ± SE): n = 10, model control 0.13, normal control 0.30 nL/s
# Description: 3 dpf wild-type AB strain zebrafish was administered with an aqueous simvastatin solution (0.5 μM) for 18 hours to establish a cerebral hemorrhage model in zebrafish. 180 wild-type AB strain zebrafishes at 3 days post fertilization (3 dpf) were randomly selected and put in a six-well plate, 30 per well (experiment group). Aqueous MS-SOD solutions with concentrations of 222, 667 and 2000 μg/mL were administrated respectively, the concentration of positive control drug icariin was 30 μM, and the normal control group (the zebrafishes were treated with water for fish) and the model control group were set at the same time. The volume of each well was 3 mL. After treatment of zebrafishes with samples for 4 hours, except for the normal control group, the other experiment groups were treated with simvastatin for 18 hours to establish the cerebral hemorrhage model. After the treatment, 10 zebrafishes from each group were randomly selected and placed in a heart rate and blood flow analysis system to record blood flow video of zebrafish, and analyze the blood flow volume (O) of zebrafish. The statistical significance of the blood flow volume was used to evaluate the improvement effect of MS-SOD on blood flow volume of cerebral hemorrhage. The formula of the improvement effect of MS-SOD on blood flow volume of cerebral hemorrhage was as follows: [formula] Statistical analysis was performed using variance analysis and Dunnett's T-test, and p<0.05 indicated a significant difference. 4.
# [4] = tested on: cerebral hemorrhage model in wild-type AB strain zebrafish; assay: Movement velocity in simvastatin-induced cerebral hemorrhage model in zebrafish; settings: icariin 30 μM (Table 3 prints 25 μg/mL); for Movement velocity (mean ± SE): n = 10, model control 80, normal control 198 mm/s
# Description: 5 dpf wild-type AB strain zebrafish was administered with an aqueous simvastatin solution (0.5 μM) for 18 hours to establish a cerebral hemorrhage model in zebrafish. 180 wild-type AB strain zebrafishes at 5 days post fertilization (5 dpf) were randomly selected and put in a six-well plate, 30 per well (experiment group). Aqueous MS-SOD solutions with concentrations of 222, 667 and 2000 μg/mL were administrated respectively, the concentration of positive control drug icariin was 30 μM, and the normal control group and the model control group were set at the same time. The volume of each well was 3 mL. After treatment of zebrafishes with samples for 4 hours, except for the normal control group, the other experiment groups were treated with simvastatin for 18 hours to establish the cerebral hemorrhage model. After the treatment, 10 zebrafishes from each group were randomly selected to measure the movement velocity (V) of zebrafish using a behavioral analyzer. The statistical significance of the movement velocity was used to evaluate the behavioral improvement effect of MS-SOD on cerebral hemorrhage. The formula of the behavioral improvement effect of MS-SOD on cerebral hemorrhage was as follows: [formula] Statistical analysis was performed using variance analysis and Dunnett's T-test, and p<0.05 indicated a significant difference.
SMILES,Improvement effect on cerebral ischemia [1],Number of zebrafish with cerebral ischemia ([1]; n = 20),Incidence of cerebral ischemia ([1]; n = 20),"Incidence of cerebral ischemia ([1]; n = 20, listed as aspirin)",Improvement effect on cerebral ischemia ([1]; listed as aspirin),Improvement effect on cerebral hemorrhage [2],Number of zebrafish with cerebral hemorrhage ([2]; n = 30),Incidence of cerebral hemorrhage ([2]; n = 30),"Incidence of cerebral hemorrhage ([2]; n = 30, listed as icariin)",Improvement effect on cerebral hemorrhage ([2]; listed as icariin),Blood flow volume improvement effect [3],Blood flow volume (mean ± SE) [3],Blood flow volume (mean ± SE) ([3]; listed as icariin),Movement improvement effect [4],Movement velocity (mean ± SE) [4],Movement velocity (mean ± SE) ([4]; listed as icariin),Movement improvement effect ([4]; listed as icariin)
"CC(=O)Oc1ccccc1C(=O)O [Aspirin, aspirin, reference compound]",65*** %,7,35*** %,35%,65%,–,–,–,–,–,–,–,–,–,–,–,–
"COc1ccc(-c2oc3c(CC=C(C)C)c(O[C@@H]4O[C@H](CO)[C@@H](O)[C@H](O)[C@H]4O)cc(O)c3c(=O)c2O[C@@H]2O[C@@H](C)[C@H](O)[C@@H](O)[C@H]2O)cc1 [Icariin, icariin, reference compound]",–,–,–,–,–,32* %,17,56* %,57%,32%,29%,0.18 ± 0.025 nL/s,0.18 nL/s,22* %,106 ± 7 mm/s,106 mm/s,22%
